Test results from US6987092B1, “Indigoid bisindole derivatives” (Faustus Forschungs Cie. Translational Cancer Research GmbH, priority 1999, dated 2006).

What was measured:
Type in all cases: cell-based
LXFL-529L cells = experiment: Cellular uptake by LXFL-529L cells; settings: 2 hours; for distribution particular: cellular organelles
Description: The amounts of the substances which were taken up by the cells are given depending on the concentration of the substance within the incubation medium. The time of incubation was 2 hours in all of the experiments. Furthermore, distribution between cytosol and the cellular organelles (particular) was measured and is given in the last two columns of Table 3.

[1] = test system: cells of the large-cell lung carcinoma of the tumor line LXFL-529L; experiment: Tumor cell growth inhibition, SRB-assay, LXFL-529L; settings: 50% growth inhibition, three days incubation in serum-containing medium
[2] = test system: cells of the mammary carcinoma cell line MCF-7; experiment: Tumor cell growth inhibition, SRB-assay, MCF-7; settings: 50% growth inhibition, three days incubation in serum-containing medium
[3] = concentration of incubation 10 μM
[4] = concentration of incubation 20 μM
[5] = concentration of incubation 50 μM

| Structure (SMILES) | distribution particular (LXFL-529L cells; [3]) [%] | distribution particular (LXFL-529L cells; [4]) [%] | amount taken up (LXFL-529L cells; [3]) [μg/mg protein] | distribution cytosol (LXFL-529L cells; [3]) [%] | amount taken up (LXFL-529L cells; [4]) [μg/mg protein] | distribution cytosol (LXFL-529L cells; [4]) [%] | IC50 [1] [µM] | IC50 [2] [µM] | distribution particular (LXFL-529L cells; [5]) [%] | amount taken up (LXFL-529L cells; [5]) [μg/mg protein] | distribution cytosol (LXFL-529L cells; [5]) [%] |
| --- | --- | --- | --- | --- | --- | --- | --- | --- | --- | --- | --- |
| Nc1ccc2c(c1)C(=C1Nc3ccccc3C1=O)C(=O)N2 [Example 15, 5-amino-indirubin] | 85 ± 4 | 94 ± 4 | 0.25 ± 0.04 | 15 ± 2 | 0.29 ± 0.05 | 6 ± 1 | 8 ± 0.7 | 5 ± 0.5 | – | – | – |
| Nc1ccc2c(c1)C(=C1Nc3ccccc3C1=NO)C(=O)N2 [Example 28, 5-amino-indirubin-3′-monooxime] | 90 ± 6 | 94 ± 5 | 0.20 ± 0.06 | 10 ± 2 | 0.23 ± 0.05 | 90 ± 6 | 7.5 ± 0.4 | 5 ± 0.8 | – | – | – |
| O=C1Nc2ccccc2C1=C1Nc2ccccc2C1=NOCCO [Example 31] | 93 ± 7 | 93 ± 6 | 0.27 ± 0.06 | 7 ± 1 | 0.31 ± 0.07 | 7 ± 2 | 1.5 ± 0.4 | 2.5 ± 0.4 | – | – | – |

The remaining lines, values ahead:

| distribution particular (LXFL-529L cells; [3]) [%] | distribution particular (LXFL-529L cells; [4]) [%] | amount taken up (LXFL-529L cells; [3]) [μg/mg protein] | distribution cytosol (LXFL-529L cells; [3]) [%] | amount taken up (LXFL-529L cells; [4]) [μg/mg protein] | distribution cytosol (LXFL-529L cells; [4]) [%] | IC50 [1] [µM] | IC50 [2] [µM] | distribution particular (LXFL-529L cells; [5]) [%] | amount taken up (LXFL-529L cells; [5]) [μg/mg protein] | distribution cytosol (LXFL-529L cells; [5]) [%] | Structure (SMILES) |
| --- | --- | --- | --- | --- | --- | --- | --- | --- | --- | --- | --- |
| 80 ± 5 | 84 ± 4 | 0.12 ± 0.03 | 20 ± 4 | 0.15 ± 0.04 | 16 ± 3 | 6 ± 0.8 | 6 ± 0.9 | 90 ± 8 | 0.18 ± 0.06 | 10 ± 4 | Cc1ccc2c(c1)C(=C1Nc3ccccc3C1=NO)C(=O)N2 [Example 25, 5-methyl-indirubin-3′-monooxime] |
| 82 ± 6 | 89 ± 5 | 0.10 ± 0.03 | 18 ± 3 | 0.13 ± 0.05 | 11 ± 3 | 6 ± 0.6 | 7 ± 0.9 | – | – | – | CCc1ccc2c(c1)C(=C1Nc3ccccc3C1=NO)C(=O)N2 [Example 26, 5-ethyl-indirubin-3′-monooxime] |
